Measured values as given in patent publication US20230219904A1 (SYNGENTA CROP PROTECTION AG, priority 2020, published 2023).

Legend:
Assay type in all cases: in vivo
Conditions in all cases: evaluated after 13 days
[1] = tested on: Abutilon theophrasti (ABUTH); assay: Pre-emergence herbicidal glasshouse test (Table B1)
Summary of the method: (§1)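 In this pot assay, seedlings or sown soil receive a spray of formulated active ingredient (acetone/water 50:50, 0.5% Tween 20) at 500 g/h unless indicated. Conditions: 24/16° C day/night, 14 hours light, 65% humidity, watering twice daily. Injury is scored after 13 days, 1 (0-19%) to 5 (80-100%).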

[2] = tested on: Amaranthus retoflexus (AMARE); assay: as above
Summary of the method: as §1

[3] = tested on: Echinochloa crus-galh (ECHCG); assay: as above
Summary of the method: as §1

[4] = tested on: Ipomoea hederacea (IPOHE); assay: as above
Summary of the method: as §1

Setaria faberi (SETFA) [5] = assay: as above
Summary of the method: as §1

[6] = tested on: Abutilon theophrasti (ABUTH); assay: Post-emergence herbicidal glasshouse test (Table B1)
Summary of the method: as §1

[7] = tested on: Amaranthus retoflexus (AMARE); assay: as above
Summary of the method: as §1

[8] = tested on: Echinochloa crus-galh (ECHCG); assay: as above
Summary of the method: as §1

[9] = tested on: Ipomoea hederacea (IPOHE); assay: as above
Summary of the method: as §1

Setaria faberi (SETFA) [10] = assay: as above
Summary of the method: as §1

Compound | PRE Application ABUTH, percentage damage on five-point scale ([1]; applied at 125 g/ha) | PRE Application AMARE, percentage damage on five-point scale ([2]; applied at 125 g/ha) | PRE Application ECHCG, percentage damage on five-point scale ([3]; applied at 125 g/ha) | PRE Application IPOHE, percentage damage on five-point scale ([4]; applied at 125 g/ha) | PRE Application SETFA, percentage damage on five-point scale (Setaria faberi (SETFA) [5]; applied at 125 g/ha) | POST Application ABUTH, percentage damage on five-point scale ([6]; applied at 125 g/ha) | POST Application AMARE, percentage damage on five-point scale ([7]; applied at 125 g/ha) | POST Application ECHCG, percentage damage on five-point scale ([8]; applied at 125 g/ha) | POST Application IPOHE, percentage damage on five-point scale ([9]; applied at 125 g/ha) | POST Application SETFA, percentage damage on five-point scale (Setaria faberi (SETFA) [10]; applied at 125 g/ha) | PRE Application ABUTH, percentage damage on five-point scale ([1]; applied at 500 g/h) | PRE Application AMARE, percentage damage on five-point scale ([2]; applied at 500 g/h) | PRE Application ECHCG, percentage damage on five-point scale ([3]; applied at 500 g/h) | PRE Application IPOHE, percentage damage on five-point scale ([4]; applied) | PRE Application SETFA, percentage damage on five-point scale (Setaria faberi (SETFA) [5]; applied at 500 g/h) | POST Application ABUTH, percentage damage on five-point scale ([6]; applied at 500 g/h) | POST Application AMARE, percentage damage on five-point scale ([7]; applied at 500 g/h) | POST Application ECHCG, percentage damage on five-point scale ([8]; applied at 500 g/h) | POST Application IPOHE, percentage damage on five-point scale ([9]; applied at 500 g/h) | POST Application SETFA, percentage damage on five-point scale (Setaria faberi (SETFA) [10]; applied at 500 g/h)
CCC(=O)N(CC)c1c(OC(F)F)ccc(C(=O)Nc2nnnn2C)c1Cl [Compound 1.021] | 5 (5=80-100%) | 3 (3=40-59%) | 3 (3=40-59%) | 3 (3=40-59%) | 3 (3=40-59%) | 4 (4=60-79%) | 3 (3=40-59%) | 4 (4=60-79%) | 3 (3=40-59%) | 4 (4=60-79%) | – | – | – | – | – | – | – | – | – | –
CCC(=O)Nc1c(OC(F)F)ccc(C(=O)Nc2nnnn2C)c1Cl [Compound 1.022] | 5 (5=80-100%) | 5 (5=80-100%) | 5 (5=80-100%) | 4 (4=60-79%) | 5 (5=80-100%) | 5 (5=80-100%) | 5 (5=80-100%) | 5 (5=80-100%) | 4 (4=60-79%) | 5 (5=80-100%) | – | – | – | – | – | – | – | – | – | –
Cn1nnnc1NC(=O)c1ccc(OC(F)F)c(N2CCCCC2=O)c1Cl [Compound 1.023] | 5 (5=80-100%) | 5 (5=80-100%) | 5 (5=80-100%) | 2 (2=20-39%) | 5 (5=80-100%) | 5 (5=80-100%) | 5 (5=80-100%) | 5 (5=80-100%) | 5 (5=80-100%) | 5 (5=80-100%) | – | – | – | – | – | – | – | – | – | –
CCC(=O)N(C)c1c(OC(F)F)ccc(C(=O)Nc2nnnn2C)c1Cl [Compound 1.024] | 5 (5=80-100%) | 5 (5=80-100%) | 4 (4=60-79%) | 4 (4=60-79%) | 4 (4=60-79%) | 4 (4=60-79%) | 3 (3=40-59%) | 4 (4=60-79%) | 4 (4=60-79%) | 4 (4=60-79%) | – | – | – | – | – | – | – | – | – | –
CC(F)C(=O)Nc1c(OC(F)F)ccc(C(=O)Nc2nnnn2C)c1Cl (centres unmarked) [Compound 1.025] | 5 (5=80-100%) | 5 (5=80-100%) | 3 (3=40-59%) | 4 (4=60-79%) | 3 (3=40-59%) | 4 (4=60-79%) | 5 (5=80-100%) | 5 (5=80-100%) | 2 (2=20-39%) | 4 (4=60-79%) | – | – | – | – | – | – | – | – | – | –
CCN(C(=O)C(C)F)c1c(OC(F)F)ccc(C(=O)Nc2nnnn2C)c1Cl (centres unmarked) [Compound 1.026] | 5 (5=80-100%) | 5 (5=80-100%) | 5 (5=80-100%) | 4 (4=60-79%) | 5 (5=80-100%) | 4 (4=60-79%) | 4 (4=60-79%) | 5 (5=80-100%) | 4 (4=60-79%) | 4 (4=60-79%) | – | – | – | – | – | – | – | – | – | –
COc1ccc(C(=O)Nc2nnnn2C)c(Cl)c1NC(=O)C(C)F (centres unmarked) [Compound 1.028, 2-chloro-3-(2-fluoropropanoylamino)-4-methoxy-N-(1-methyltetrazol-5-yl)benzamide] | – | – | – | – | – | – | – | – | – | – | 5 (5=80-100%) | 5 (5=80-100%) | 4 (4=60-79%) | 3 (3=40-59%) | 3 (3=40-59%) | 5 (5=80-100%) | 5 (5=80-100%) | 3 (3=40-59%) | 4 (4=60-79%) | 4 (4=60-79%)
COc1ccc(C(=O)Nc2nnnn2C)c(Cl)c1NC(=O)C1CC1 [Compound 1.029] | – | – | – | – | – | – | – | – | – | – | 5 (5=80-100%) | 5 (5=80-100%) | 5 (5=80-100%) | 4 (4=60-79%) | 5 (5=80-100%) | 5 (5=80-100%) | 5 (5=80-100%) | 5 (5=80-100%) | 5 (5=80-100%) | 5 (5=80-100%)
